Molecules are shown by their SMILES.

For assay [1], the system named is Arabidopsis thaliana cultured cells 87T. Description: Concerted sensitivity test on herbicide and antibiotic in Arabidopsis thaliana cultured cells. Type of assay: cell-based. Particulars: for inhibition of the growth rate in combination with spectinomycin: both spectinomycin and herbicide, effect not observed with individual administration of the same concentration. Here is the method: Arabidopsis thaliana cultured cells 87T were used in the experiment. Media comprising different concentrations of a group of herbicides and spectinomycin using a redifferentiation medium (Q. Yu. et al. Plant Physiol. 2017. 175(1). 186-193) as the base were added to each well of a 24-well plate. Specifically, a plate with varying concentrations of the group of herbicides of 0, 0.1, 1, 10, 50, and 100 μM in the direction of the X-axis of the plate and varying concentrations of an antibiotic spectinomycin of 0, 1, 10, and 100 μg/mL in the direction of the y-axis was prepared (FIG. 9A). Pinoxaden, tepraloxydim, tralkoxydim, cyhalofop butyl, and haloxyfop were used as the group of herbicides in each plate. 100 μL of cultured cells was added to each well and cultured under light-dark conditions in an artificial climate incubator. On days 3, 7, and 15 after culture, the growth status was checked to study the concerted sensitivity of a herbicide and antibiotic. • Results

Assay [2] concerns Oryza sativa callus. Put plainly: Herbicide selection of Oryza sativa callus on redifferentiation selection medium after plasmid bombardment. Type of assay: cell-based, Oryza sativa japonica (Nipponbare). The following applies: callus introduced with pNC (no resistance) sensitive; redifferentiated individuals counted after about 6 weeks; tested 0.1-4.0 μM. Here is the method:
For the experiment, Oryza sativa japonica (Nipponbare) was used. Threshed Oryza sativa seeds were placed in a callus inducing medium, i.e., an N6D medium (Z. Shimatani et al. Nat Biol. 2017), and grown under conditions of 25° C. away from light within an artificial climate incubator to induce a primary callus. To prepare a callus plate for introducing a gene, the primary callus that had been actively growing for several weeks since induction of the callus from seeds was strained using a sterilized mesh. The refined callus was uniformly applied on filter paper placed on a callus inducing medium plate. A gene was introduced to a plate obtained by culturing the callus for 3 to 4 days within the artificial climate incubator. For selection of a transformant, a redifferentiation medium which is an MSRE medium (Z. Shimatani et al. Nat Biol. 2017) added with a suitable herbicide was used and cultured under conditions of 31.5° C. in a light-dark cycle of 12 hours within the artificial climate incubator. […]
After introduction of a gene, the plate was subjected to expansion culture under dark conditions in the artificial climate incubator for 3 to 4 days. […] The number of individuals redifferentiated from the callus clumps was counted as the selected individual count. • <Detection of Transgenesis in a Created Individual>

As to `CN[C@@H]1[C@H](O)[C@H](NC)[C@H]2O[C@@]3(O)C(=O)C[C@@H](C)O[C@H]3O[C@@H]2[C@H]1O` [spectinomycin], the “colour of cultured cells (chloroplast development)” value in assay [1] (100 μg/mL spectinomycin) is reported as “Change in color to yellow”. Further, in assay [1] (only spectinomycin, concentration range studied (0-100 μg/mL)), the “inhibition of the growth rate by spectinomycin alone” value was “not inhibited”.

On to `CCO/N=C(\CC)C1=C(O)CC(c2c(C)cc(C)cc2C)CC1=O` (centres unmarked) [tralkoxydim], for which the “concentration at which a selection effect of the herbicide can be expected” value in assay [2] is at least 0.5 µM.

Consider `CCc1cc(C)cc(CC)c1-c1c(OC(=O)C(C)(C)C)n2n(c1=O)CCOCC2` [pinoxaden], for which the “inhibition of the growth rate in combination with spectinomycin” value in assay [1] is recorded as “significant inhibition of the growth rate”. For the same compound, the “herbicide concentration at which inhibition of growth was observed” value in assay [1] (herbicide alone, tested 0-100 μM, growth checked on days 3, 7, 15) was at least 10 µM.

On to `CCCCOC(=O)[C@@H](C)Oc1ccc(Oc2ccc(C#N)cc2F)cc1` [cyhalofop butyl], for which the “inhibition of the growth rate by herbicide alone” value in assay [1] (herbicide alone, within the range of concentrations studied (0-100 μM)) is recorded as “not observed”.

On to `CC(Oc1ccc(Oc2ncc(C(F)(F)F)cc2Cl)cc1)C(=O)O` (centres unmarked) [haloxyfop], for which, in assay [2], the “concentration at which a selection effect of the herbicide can be expected” value was at least 0.1 µM. For the same compound, in assay [1], the “inhibition of the growth rate in combination with spectinomycin” value is recorded as “significant inhibition of the growth rate”.

These data come from patent publication US20230151376A1, “ORGANELLE TRANSFORMANT SCREENING METHOD” (NATIONAL UNIVERSITY CORPORATION KOBE UNIVERSITY, priority 2020, published 2023).
